Measured values published in US20160287553A1, “TRANSLATION INHIBITORS IN HIGH-DOSE CHEMO- AND/OR HIGH-DOSE RADIOTHERAPY” (DEUTSCHES KREBSFORSCHUNGSZENTRUM, priority 2013, published 2016).
Entries after “also recorded” stand apart in the source; their conditions may differ.

Tested on: p53 protein synthesis
Assay: Metabolic pulse-labeling and immunoprecipitation of p53
Assay type: cell-based, human
Details: T cells, after Etoposide treatment, pulse-labeling (FIG. 6c)
Protocol: Subsequently, cells were washed in ice-cold PBS, lysed in IP buffer (20 mM Tris-HCl, […], 2 mM EDTA, 1% Triton X-100, protease inhibitors) and centrifuged (10,000 g, 20 min) to clear lysates. Aliquots were taken for input control and lysates were incubated overnight with sepharose-coupled protein A beads, anti-p53 antibody (FL-393; Santa Cruz, Heidelberg, Germany) or isotype control antibody (Sigma-Aldrich, Munich, Germany). Two wash-steps with IP buffer preceded boiling of beads in denaturing sample buffer at 95° C. for […]. Incorporation of […] into p53 protein was detected by the phosphoimaging system FLA-7000 IR (Fujifilm Europe GmbH, Düsseldorf, Germany).
Thus, Roc-A suppresses DNA-damage-induced upregulation of p53 at the translational level.

Which “[35S]methionine incorporation into the p53 protein” value does the source give for COc1ccc([C@@]23Oc4cc(OC)cc(OC)c4[C@]2(O)[C@H](O)[C@H](C(=O)N(C)C)[C@H]3c2ccccc2)cc1 [Roc-A, (1R,2R,3S,3aR,8bS)-1,8b-dihydroxy-6,8-dimethoxy-3a-(4-methoxyphenyl)-N,N-dimethyl-3-phenyl-2,3-dihydro-1H-cyclopenta[b][1]benzofuran-2-carboxamide] here?
The value was “inhibits p53 protein translation; also recorded: suppressed [^35S]methionine incorporation into the p53 protein”.
